# Results taken from patent publication US8530504B2, “Pyrazolothiazole compound” (Eisai R&D Management Co., Ltd., priority 2009, dated 2013).
# Target: human CRFR1 (Homo sapiens (Human), UniProt P34998)
# Assay: CRFR1 Binding Test;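 note: nonspecific binding was determined with a 4,000-fold excess of unlabelled sauvagine and subtracted from every reading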
# Conditions: competition with 100 pM 125I-CRF, SPA method, membrane fraction of human CRFR1-expressing HEK293 cells; read-out: CRF1 receptor binding capacity IC50
# Chain of human CRFR1 (P34998 24-415): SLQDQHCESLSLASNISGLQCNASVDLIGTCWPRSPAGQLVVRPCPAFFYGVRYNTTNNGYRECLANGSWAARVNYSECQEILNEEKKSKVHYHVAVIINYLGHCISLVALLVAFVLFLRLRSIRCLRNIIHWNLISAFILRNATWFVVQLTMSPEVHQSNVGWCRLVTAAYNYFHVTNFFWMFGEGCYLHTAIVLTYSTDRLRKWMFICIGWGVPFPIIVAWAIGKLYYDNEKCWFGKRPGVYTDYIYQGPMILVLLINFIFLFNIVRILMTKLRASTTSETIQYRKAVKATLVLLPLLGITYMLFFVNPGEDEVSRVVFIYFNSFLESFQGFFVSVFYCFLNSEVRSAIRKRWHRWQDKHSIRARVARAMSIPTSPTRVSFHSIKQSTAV
row,IC50 [nM],SMILES
1,45,"COCc1cc(OC)c(-c2csc3c(N(CC4CC4)CC4C5COCC54)c(OC)nn23)c(OC)c1 (single isomer, unassigned; diastereomer 1) [Example 94, N-(Cyclopropylmethyl)-3-[2,6-dimethoxy-4-(methoxymethyl)phenyl]-6-methoxy-N-[3-oxabicyclo[3.1.0]hex-6-ylmethyl]-pyrazolo[5,1-b][1,3]thiazole-7-amine (diastereomer 1)]"
2,92,"COCc1cc(OC)c(-c2csc3c(N(CC4CC4)CC4COCOC4)c(OC)nn23)c(OC)c1 [Example 11, Cyclopropylmethyl-3[3-(2,6-dimethoxy-4-methoxymethyl-phenyl)-6-methoxy-pyrazolo[5,1-b][1,3]thiazol-7-yl]-[1,3]dioxan-5-ylmethyl-amine]"
3,61,"COCCCN(c1c(OC)nn2c(-c3c(OC)cc(COC)cc3OC)csc12)C1CCCC1 [Example 63, N-Cyclopentyl-3-[2,6-dimethoxy-4-(methoxymethyl)phenyl]-6-methoxy-N-(3-methoxypropyl)pyrazolo[5,1-b][1,3]thiazole-7-amine]"
4,61,"CCN(c1c(OC)nn2c(-c3c(OC)cc(C4CC4)cc3OC)csc12)C1CCOCC1 [Example 64, 3-(4-Cyclopropyl-2,6-dimethoxyphenyl)-N-ethyl-6-methoxy-N-(tetrahydro-2H-pyran-4-yl)pyrazolo[5,1-b][1,3]thiazole-7-amine]"
5,26,"CCN(c1c(OC)nn2c(-c3c(OC)cc(COC)cc3OC)csc12)C1CCCC1 [Example 66, N-Cyclopentyl-3-[2,6-dimethoxy-4-(methoxymethyl)phenyl]-N-ethyl-6-methoxypyrazolo[5,1-b][1,3]thiazole-7-amine]"
6,52,"COCc1cc(OC)c(-c2csc3c(N(C4CCC4)C4CCOC4)c(OC)nn23)c(OC)c1 (centres unmarked) [Example 67, N-Cyclobutyl-3-[2,6-dimethoxy-4-(methoxymethyl)phenyl]-6-methoxy-N-(tetrahydrofuran-3-yl)pyrazolo[5,1-b][1,3]thiazole-7-amine]"
7,77,"CCCN(c1c(OC)nn2c(-c3c(OC)cc(COC(C)C)cc3OC)csc12)C1CCOCC1 [Example 68, [3-(4-Isopropoxymethyl-2,6-dimethoxyphenyl)-6-methoxy-pyrazolo[5,1-b][1,3]thiazol-7-yl]-propyl-(tetrahydro-pyran-4-yl)-amine]"
8,48,"COCCCN(c1c(OC)nn2c(-c3c(OC)cc(C4CC4)cc3OC)csc12)C1CCCC1 [Example 69, N-Cyclopentyl-3-(4-cyclopropyl-2,6-dimethoxyphenyl)-6-methoxy-N-(3-methoxypropyl)pyrazolo[5,1-b][1,3]-thiazole-7-amine]"
9,61,"COCc1cc(OC)c(-c2csc3c(N(CCCF)Cc4ccncc4)c(OC)nn23)c(OC)c1 [Example 70, 3-[2,6-Dimethoxy-4-(methoxymethyl)phenyl]-N-(3-fluoropropyl)-6-methoxy-N-(pyridin-4-ylmethyl)-pyrazolo[5,1-b][1,3]thiazole-7-amine]"
10,58,"COCc1cc(OC)c(-c2csc3c(N(CCCF)Cc4cccnc4)c(OC)nn23)c(OC)c1 [Example 71, 3-[2,6-Dimethoxy-4-(methoxymethyl)phenyl]-N-(3-fluoropropyl)-6-methoxy-N-(pyridin-3-ylmethyl)-pyrazolo[5,1-b][1,3]thiazole-7-amine]"
11,75,"COCc1cc(OC)c(-c2csc3c(N(CCCF)Cc4ccccn4)c(OC)nn23)c(OC)c1 [Example 72, 3-[2,6-Dimethoxy-4-(methoxymethyl)phenyl]-N-(3-fluoropropyl)-6-methoxy-N-(pyridin-2-ylmethyl)-pyrazolo[5,1-b][1,3]thiazole-7-amine]"
12,66,"COCCCN(c1c(OC)nn2c(-c3c(Cl)cc(COC)cc3OC)csc12)C1CCCC1 [Example 73, 3-[2-Chloro-6-methoxy-4-(methoxymethyl)phenyl]-N-cyclopentyl-6-methoxy-N-(3-methoxypropyl)pyrazolo[5,1-b][1,3]thiazole-7-amine]"
13,52,"COCCN(c1c(OC)nn2c(-c3c(OC)cc(C#N)cc3OC)csc12)C1CCCC1 [Example 74, 4-{7-[Cyclopentyl(2-methoxyethyl)amino]-6-methoxypyrazolo[5,1-b][1,3]thiazol-3-yl}-3,5-dimethoxybenzonitrile]"
14,74,"CCCCN(c1c(OC)nn2c(-c3c(OC)cc(COC(C)C)cc3OC)csc12)C1CCOCC1 [Example 75, Butyl-[3-(4-isopropoxymethyl-2,6-dimethoxy-phenyl)-6-methoxy-pyrazolo[5,1-b][1,3]thiazol-7-yl]-(tetrahydro-pyran-4-yl)amine]"
15,37,"COCc1cc(OC)c(-c2csc3c(N(CC(C)C)CC4(OC)CC4)c(OC)nn23)c(OC)c1 [Example 76, 3-[2,6-Dimethoxy-4-(methoxymethyl)phenyl]-N-isobutyl-6-methoxy-N-[(1-methoxycyclopropyl)methyl]pyrazolo[5,1-b][1,3]thiazole-7-amine]"
16,76,"CCCN(c1c(OCC)nn2c(-c3c(OC)cc(COC)cc3OC)csc12)C1CCOCC1 [Example 79, 3-[2,6-Dimethoxy-4-(methoxymethyl)phenyl]-6-ethoxy-N-propyl-N-(tetrahydro-2H-pyran-4-yl)pyrazolo[5,1-b][1,3]thiazole-7-amine]"
17,89,"CCOc1nn2c(-c3c(OC)cc(COC)cc3OC)csc2c1N(CC1CC1)C1CCOCC1 [Example 81, N-(Cyclopropylmethyl)-3-[2,6-dimethoxy-4-(methoxymethyl)phenyl]-6-ethoxy-N-(tetrahydro-2H-pyran-4-yl)-pyrazolo[5,1-b][1,3]thiazole-7-amine]"
18,63,"CCCCN(c1c(OCC)nn2c(-c3c(OC)cc(COC)cc3OC)csc12)C1CCOCC1 [Example 82, N-Butyl-3-[2,6-dimethoxy-4-(methoxymethyl)phenyl]-6-ethoxy-N-(tetrahydro-2H-pyran-4-yl)-pyrazolo[5,1-b][1,3]thiazole-7-amine]"
19,47,"CCOc1nn2c(-c3c(OC)cc(COC)cc3OC)csc2c1N(CC1CCC1)C1CCOCC1 [Example 83, N-(Cyclobutylmethyl)-3-[2,6-dimethoxy-4-(methoxymethyl)phenyl]-6-ethoxy-N-(tetrahydro-2H-pyran-4-yl)-pyrazolo[5,1-b][1,3]thiazole-7-amine]"
20,51,"CCCN(CC1CCOC1)c1c(OCC)nn2c(-c3c(OC)cc(COC)cc3OC)csc12 (centres unmarked) [Example 84, 3-[2,6-Dimethoxy-4-(methoxymethyl)phenyl]-6-ethoxy-N-propyl-N-(tetrahydrofuran-3-ylmethyl)pyrazolo[5,1-b][1,3]thiazole-7-amine]"
21,33,"CCCN(c1ccccn1)c1c(OC)nn2c(-c3c(OC)cc(COC)cc3OC)csc12 [Example 86, 3-[2,6-Dimethoxy-4-(methoxymethyl)phenyl]-6-methoxy-N-propyl-N-pyridin-2-ylpyrazolo[5,1-b][1,3]thiazole-7-amine]"
22,36,"CCCN(c1cccnc1)c1c(OC)nn2c(-c3c(OC)cc(COC)cc3OC)csc12 [Example 87, 3-[2,6-Dimethoxy-4-(methoxymethyl)phenyl]-6-methoxy-N-propyl-N-pyridin-3-ylpyrazolo[5,1-b][1,3]thiazole-7-amine]"
23,53,"COCc1cc(OC)c(-c2csc3c(N(CCCF)c4cccnc4)c(OC)nn23)c(OC)c1 [Example 88, 3-[2,6-Dimethoxy-4-(methoxymethyl)phenyl]-N-(3-fluoropropyl)-6-methoxy-N-pyridin-3-ylpyrazolo[5,1-b][1,3]thiazole-7-amine]"
24,52,"COCc1cc(OC)c(-c2csc3c(N(CC4CC4)c4cccnc4)c(OC)nn23)c(OC)c1 [Example 89, N-(Cyclopropylmethyl)-3-[2,6-dimethoxy-4-(methoxymethyl)phenyl]-6-methoxy-N-pyridin-3-ylpyrazolo[5,1-b][1,3]thiazole-7-amine]"
25,101,CCCCN(c1c(OC)nn2c(-c3c(OC)cc(C=O)cc3OC)csc12)C1CCOCC1 [Example 103]
26,83,"CCCCN(c1c(SC)nn2c(-c3c(OC)cc(COC)cc3OC)csc12)C1CCOCC1 [Example 106, N-Butyl-3-[2,6-dimethoxy-4-(methoxymethyl)phenyl]-6-(methylthio)-N-(tetrahydro-2H-pyran-4-yl)pyrazolo[5,1-b][1,3]thiazole-7-amine]"

# System: mice
# Assay: Light/dark box test in mice (anxiolytic effect)
# Format: in vivo
# Conditions: dose significantly prolonging time spent in the light box vs vehicle; oral administration one hour prior to test; male Balb/c mice
# Procedure: <Evaluation of Anxiolytic Effect in Light/Dark Box Test in Mice>
# The light/dark box test in mice was carried out according to a modified method of Belzung C., Misslin R., and Vogel E. et al. (Reference; Behavioural effects of the benzodiazepine receptor partial agonist RO16-6028 in mice, Psychopharmacology, 97, 388-391, 1989). The test apparatus used in this test was a light/dark box including a covered black acrylic box (dark box; 15×10×20 cm), a white acrylic box with top opened (light box; 15×20×20 cm) and a black acrylic tunnel (10×7×4.5 cm) that connects the dark box and the light box and enables a mouse to freely move back and forth between the dark box and light box. In this test apparatus, however, a transparent acrylic plate was used for the front side (20×20 cm) and back side (20×20 cm) of the light box to allow observation of the behavior. After setting illumination so that the light intensity of the floor surface of the light box became 150 Lux, 5-week-old male Balb/c mice (purchased from Nihon Charles River) were introduced into the dark box and the test was started. In the test, the tested compound was suspended in 5% dimethyl sulfoxide, 5% Cremopor EL and 90% physiological saline and orally administered to the test animals one hour prior to the start of the test.
# The time spent in the light box was measured as an index of the anxiolytic effect, with “spend in the light box” defined as the state in which all limbs of the mice were on the floor of the light box. […] The statistical significance between the vehicle-treated group and the test compound-treated groups was analyzed by one-way layout analysis of variance followed by Dunnett multiple comparison when multiple doses were set for the same test, and by the Mann-Whitney U test when only one dose was set.
row,SMILES,Effective Dose [mg/kg]
1,"COCc1cc(OC)c(-c2csc3c(N(CC4CC4)CC4C5COCC54)c(OC)nn23)c(OC)c1 (single isomer, unassigned; diastereomer 1) [Example 94, N-(Cyclopropylmethyl)-3-[2,6-dimethoxy-4-(methoxymethyl)phenyl]-6-methoxy-N-[3-oxabicyclo[3.1.0]hex-6-ylmethyl]-pyrazolo[5,1-b][1,3]thiazole-7-amine (diastereomer 1)]",30
2,"COCc1cc(OC)c(-c2csc3c(N(CC4CCOCC4)CC4CC4)c(C)nn23)c(OC)c1 [Example 4, N-(Cyclopropylmethyl)-3-[2,6-dimethoxy-4-(methoxymethyl)phenyl]-6-methyl-N-(tetrahydro-2H-pyran-4-ylmethyl)pyrazolo[5,1-b][1,3]thiazole-7-amine]",30
3,"COCc1cc(OC)c(-c2csc3c(N(CC4CC4)CC4COCOC4)c(OC)nn23)c(OC)c1 [Example 11, Cyclopropylmethyl-3[3-(2,6-dimethoxy-4-methoxymethyl-phenyl)-6-methoxy-pyrazolo[5,1-b][1,3]thiazol-7-yl]-[1,3]dioxan-5-ylmethyl-amine]",30

# Same assay, conditions: statistically significant at 30 mg/kg (oral administration)
row,SMILES,anxiolytic effect in the light/dark box test in mice
1,"COCc1cc(OC)c(-c2csc3c(N(CC4CC4)CC4C5COCC54)c(OC)nn23)c(OC)c1 (single isomer, unassigned; diastereomer 1) [Example 94, N-(Cyclopropylmethyl)-3-[2,6-dimethoxy-4-(methoxymethyl)phenyl]-6-methoxy-N-[3-oxabicyclo[3.1.0]hex-6-ylmethyl]-pyrazolo[5,1-b][1,3]thiazole-7-amine (diastereomer 1)]",excellent anxiolytic effects
2,"COCc1cc(OC)c(-c2csc3c(N(CC4CCOCC4)CC4CC4)c(C)nn23)c(OC)c1 [Example 4, N-(Cyclopropylmethyl)-3-[2,6-dimethoxy-4-(methoxymethyl)phenyl]-6-methyl-N-(tetrahydro-2H-pyran-4-ylmethyl)pyrazolo[5,1-b][1,3]thiazole-7-amine]",excellent anxiolytic effects
3,"COCc1cc(OC)c(-c2csc3c(N(CC4CC4)CC4COCOC4)c(OC)nn23)c(OC)c1 [Example 11, Cyclopropylmethyl-3[3-(2,6-dimethoxy-4-methoxymethyl-phenyl)-6-methoxy-pyrazolo[5,1-b][1,3]thiazol-7-yl]-[1,3]dioxan-5-ylmethyl-amine]",excellent anxiolytic effects
